Patent US4016280A, “4,4-Diarylpiperidine compositions and use” (Byk Gulden Lomberg Chemische Fabrik GmbH, priority 1969, dated 1977)
Entries after “also recorded” stand apart in the source; their conditions may differ. Like-named read-outs stand apart in the source and are kept apart here.

Assays:
albino mouse [1] = test: Antagonism in the albino mouse of reserpine (preventive and curative ptosis/sedation); type: in vivo; conditions: reserpine 2mg/kg sc., drug per os; for ED50: Mus musculus, po
Experimental: (§1) Antagonism in the albino mouse
(§2) Com- Preventive Curative catalepsy
(§3) of tion dation p.o.) i.p.)
(§4) *drugs administered per os
(§5) **administered in doses from 50 to 300 mg/kg

albino mouse [2] = test: Antagonism in the albino mouse of tremorine tremor; type: in vivo; conditions: tremorine 15 mg/kg i.p., drug per os, Examples 28, 29: 50 to 300 mg/kg; for ED50: Mus musculus, po
Experimental: as §1, §3, §4, §5

albino mouse [3] = test: General behaviour of the albino mouse with different doses; type: in vivo; conditions: albino mouse; for Locomotory activity / Restlessness Stereotype / Salivation / Vigilance: different doses per os, Examples 28, 29: 50 to 300 mg/kg
Experimental: Acute toxi- General behaviour of the albino
city in the mouse with different doses*
as §4, §5

[4] = Acute toxicity in the albino mouse; conditions: mouse, in vivo, Table 2
Experimental: As stated above, the compounds of formula I have advantageous central nervous system stimulating properties. Side-effects, as they are encountered on administration of amphetamine-type stimulants, are produced to a much lesser extent by the 4,4-diphenylpiperidine compounds, if at all. […] The tests were carried out according to known and accepted pharmacological standard test methods.
a Acute toxicity 150 mg./kg. 100 mg./kg.

albino mouse [5] = test: Antagonism in the albino mouse of perphenazine catalepsy; type: in vivo; conditions: perphenazine 10 mg/kg p.o., drug per os, Examples 28, 29: 50 to 300 mg/kg; for ED50: Mus musculus, po
Experimental: as §1, §2, §3, §4, §5

[6] = Marshall, Brit. J. Pharmacol. 10, 270 (1955), technique of Schild; cited from earlier work
[7] = read-out: Reserpine antagonism, Preventive Sedation ED50
[8] = read-out: Reserpine antagonism, Preventive ptosis ED50
[9] = Examples 28, 29: 50 to 300 mg/kg
[10] = iv, i.v., read-out: Acute toxicity in the albino mouse LD50 i.v.
[11] = Examples 28, 29: 50 to 300 mg/kg, read-out: Reserpine antagonism, Curative Sedation ED50
[12] = Examples 28, 29: 50 to 300 mg/kg, read-out: Reserpine antagonism, Curative ptosis ED50

| Compound | ED50 (albino mouse [1]; [7]) [mg/kg] | ED50 (albino mouse [1]; [8]) [mg/kg] | Reserpine antagonism, Curative Sedation ED50 (albino mouse [1]; [9]) | Reserpine antagonism, Curative ptosis ED50 (albino mouse [1]; [9]) | Locomotory activity (albino mouse [3]) | Restlessness Stereotype (albino mouse [3]) | Salivation (albino mouse [3]) | Vigilance (albino mouse [3]) | LD50 [4, 10] [mg/kg] | ED50 (albino mouse [1]; [11]) [mg/kg] | ED50 (albino mouse [1]; [12]) [mg/kg] | ED50 (albino mouse [2]) [mg/kg] | ED50 (albino mouse [5]) [mg/kg] | Locomotory activity (in words) (albino mouse [3]) | Restlessness, stereotypia or salivation (in words) (albino mouse [3]) | Vigilance of the animal (in words) (albino mouse [3]) | also measured |
| --- | --- | --- | --- | --- | --- | --- | --- | --- | --- | --- | --- | --- | --- | --- | --- | --- | --- |
| c1ccc(CCN2CCC(c3ccccc3)(c3ccccc3)CC2)cc1 [Example 5, 1-Phenethyl-4,4-diphenylpiperidine] | 3 | 3 | (+) | (+) | - (decrease) | .phi. (no effect) | .phi. (no effect) | + (increase) | 19 |  |  |  |  |  |  |  | Tremorine tremor antagonism ED50 (albino mouse [2]): .phi. (no effect); Remark under Locomotory activity (Ataxy) (albino mouse [3]; per os): Ataxy |
| CCN1CCC(c2ccccc2)(c2ccccc2)CC1 [Example 3, 1-Ethyl-4,4-diphenylpiperidine] | 5 | 5 |  |  | (+) | .phi. (no effect) | .phi. (no effect) | ++ | 45 | 50 | > 50 | 1 | 2 |  |  |  | LD50 ([4]; po, p.o., read-out: Acute toxicity in the albino mouse LD50 p.o.): 150 mg/kg |
| CCC(C)N1CCC(c2ccccc2)(c2ccccc2)CC1 (stereo not shown) [Example 26, 1-(secondary Butyl)-4,4-diphenylpiperidine] | 10 | 25 |  | (+) | (+) | .phi. (no effect) | .phi. (no effect) | ++ | 19 | 10 |  | 5 | 7 | only slightly increased | without causing restlessness, sterotypia or salivation | strong increase | Antihistaminic activity [6]: devoid of any therapeutically-utilizable antihistaminic activity; also recorded: devoid of any therapeutically utilizable antihistaminic activity |
| OCCCN1CCC(c2ccccc2)(c2ccccc2)CC1 [Example 30, 1-(3-hydroxypropyl)-4,4-diphenylpiperidine] | 25 | 25 | .phi. (no effect) | (+) | + (increase) | .phi. (no effect) | .phi. (no effect) | ++ | 32 |  |  | 5 | 5 | only slightly increased | without causing restlessness, sterotypia or salivation | strong increase |  |
| OCCN1CCC(c2ccccc2)(c2ccccc2)CC1 [Example 9, 1-(2-Hydroxyethyl)-4,4-diphenylpiperidine] | 8 | 10 |  | (+) | (+) | .phi. (no effect) | .phi. (no effect) | ++ | 33 | 15 |  | 10 | 15 | only slightly increased | without causing restlessness, sterotypia or salivation | strong increase |  |
| c1ccc(CN2CCC(c3ccccc3)(c3ccccc3)CC2)cc1 [Example 10, 1-Benzyl-4,4-diphenylpiperidine] |  |  |  |  |  |  |  | ++ | 20 |  |  |  |  | only slightly increased | without causing restlessness, sterotypia or salivation | strong increase |  |
| COCCCN1CCC(c2ccccc2)(c2ccccc2)CC1 [Example 7, 1-(3-Methoxypropyl)-4,4-diphenylpiperidine] |  |  |  |  | (+) | .phi. (no effect) | .phi. (no effect) | ++ | 30 |  |  | 3 |  | only slightly increased | without causing restlessness, sterotypia or salivation | strong increase |  |
| c1ccc(C2(c3ccccc3)CCNCC2)cc1 [Example 19, 4,4-Diphenylpiperidine] | 5 | 10 |  |  | (+) | .phi. (no effect) | .phi. (no effect) | ++ | 25 | 10 | > 50 | 2 | 20 | only slightly increased | without causing restlessness, sterotypia or salivation | strong increase |  |
| CC(=O)CN1CCC(c2ccccc2)(c2ccccc2)CC1 [Example 17, 1-Acetonyl-4,4-diphenylpiperidine] | 15 | 12 |  |  | (+) | .phi. (no effect) | .phi. (no effect) | ++ | 34 | ~25 | > 25 | 17 | > 25 | only slightly increased | without causing restlessness, sterotypia or salivation | strong increase |  |
| CC(=O)CCN1CCC(c2ccccc2)(c2ccccc2)CC1 [Example 32, 1-(2-Acetoethyl)-4,4-diphenylpiperidine] |  |  | ~ 50 mg/kg | > 60 mg/kg | (+) | .phi. (no effect) | .phi. (no effect) | ++ |  |  |  |  |  | only slightly increased | without causing restlessness, sterotypia or salivation | strong increase | Reserpine antagonism, Preventive Sedation ED50 (albino mouse [1]): 15 mg/kg; Reserpine antagonism, Preventive ptosis ED50 (albino mouse [1]): 10 mg/kg; Tremorine tremor antagonism ED50 (albino mouse [2]): 15 mg/kg; Perphenazine catalepsy antagonism ED50 (albino mouse [5]): 45 mg/kg |
